Measurements: patent US8759535B2, “Substituted fused imidazole derivatives, pharmaceutical compositions, and methods of use thereof” (High Point Pharmaceuticals, LLC, priority 2010, dated 2014)
Where a name gives a salt, the structure may show the parent alone.

What follows are compounds tested on HMOX1 (assay: HMOX1 Protein Assay (immunostaining of HO-1 in NHLF cells, GE InCell 1000)). Settings: Homo sapiens, fold change above DMSO treated cells, 3 μM compound (asterisk), 16 h.
Assay type: cell-based
Procedure: Cell Culture. Normal Human Fibroblast (NHLF), were obtained from Lonza. Cultures of cells were maintained in Fibroblast Growth Medium (FGM-2) medium supplemented with 2% fetal bovine serum (FBS), Fibroblast Growth Factor (hFGF-B) 0.5 mL, Insulin 0.5 mL, gentamicin/amphotericin-B 0.5 mL at 37° C. in a humidified atmosphere of 5% CO2. Cells were grown to 80% confluence before treating.
HMOX1 Protein Assay. NHLF cells were grown to 80% confluency and harvested by washing once with HEPES and then trypsinized. Equal numbers (2×10^3 cells per well) of NHLF cells were plated in 384 well optilux tissue culture (BD) plates. Cells were incubated overnight in FGM-2 medium prior to exposure to compound. Cells were treated with either vehicle (DMSO) or compound (dissolved in vehicle) for 16 h. Cells were washed 2× with 1×PBS and fixed with 4% Paraformaldyhyde for 15 min. The fixed cells were then permeabalized with 0.1% Triton X-100 and blocked with 5% BSA in 1×PBS 0.05% Tween-20 for 15 min. HO-1 antibody (abcam) was used for immunostaining at 1:300 dilution in 1% BSA in 1×PBS for 1 hour. Cells were washed 2× with 1×PBS and secondary antibody goat anti-mouse Alexa 488 1:400 dilution (Invitrogen); Hoechst 1:2000 (Invitrogen) in 1% BSA in 1×PBS for 1 hour. Plate was washed 5× with 1×PBS and read at Hoechst Ex.360 […]; Alexa 488 Ex.480 Em. 535 using GE InCell 1000. Results analyzed using GE InCell Analyzer software. Heme oxygenase data represents the fold change above DMSO treated cells.
In general, the fold induction data are reported for 5 μM concentration (i.e., μ-moles of compound to total volume, where the solvent is about 99.2% media and 0.8% DMSO). In some instances, the reported data are for 3 μM concentration, which are indicated by an asterisk (*).

| SMILES | fold induction at 3 µM |
| --- | --- |
| Cn1c(Nc2nc3ccc(C(F)(F)F)cc3s2)nc2cc(C(=O)NCCN3CCOCC3)ccc21 [Example 341, 1-Methyl-2-(6-trifluoromethyl-benzothiazol-2-ylamino)-1H-benzoimidazole-5-carboxylic acid (2-morpholin-4-yl-ethyl)-amide] | 32.8 |
| C[C@H](NC(=O)c1ccc2c(c1)nc(Nc1nc3ccc(C(F)(F)F)cc3s1)n2C)C(=O)N1CCOCC1 [Example 466, 1-Methyl-2-(6-trifluoromethyl-benzothiazol-2-ylamino)-1H-benzoimidazole-5-carboxylic acid ((S)-1-methyl-2-morpholin-4-yl-2-oxo-ethyl)-amide] | 22.4 |
| CNC(=O)CNC(=O)c1ccc2c(c1)nc(Nc1nc3ccc(Cl)cc3s1)n2C [Example 380, 2-(6-Chloro-benzothiazol-2-ylamino)-1-methyl-1H-benzoimidazole-5-carboxylic acid methylcarbamoylmethyl-amide] | 30 |
| CO[C@H]1CCN(C(=O)CNC(=O)c2ccc3c(c2)nc(Nc2nc4ccc(C(F)(F)F)cc4s2)n3C)C1 [Example 410, 1-Methyl-2-(6-trifluoromethyl-benzothiazol-2-ylamino)-1H-benzoimidazole-5-carboxylic acid [2-((S)-3-methoxy-pyrrolidin-1-yl)-2-oxo-ethyl]-amide] | 24.7 |
| Cn1c(Nc2nc3ccc(C(F)(F)F)cc3s2)nc2cc(C(=O)NCCCCO)ccc21 [Example 221, 1-Methyl-2-(6-trifluoromethyl-benzothiazol-2-ylamino)-1H-benzoimidazole-5-carboxylic acid (4-hydroxy-butyl)-amide] | 26 |
| Cn1c(Nc2nc3ccc(OC(F)(F)F)cc3s2)nc2cc(C(=O)NCCCN3CCOCC3)ccc21 [Example 358, 1-Methyl-2-(6-trifluoromethoxy-benzothiazol-2-ylamino)-1H-benzoimidazole-5-carboxylic acid (3-morpholin-4-yl-propyl)-amide] | 11.8 |
| Cn1c(Nc2nc3ccc(OC(F)(F)F)cc3s2)nc2cc(C(=O)NCCCOCCO)ccc21 [Example 250, 1-Methyl-2-(6-trifluoromethoxy-benzothiazol-2-ylamino)-1H-benzoimidazole-5-carboxylic acid [3-(2-hydroxy-ethoxy)-propyl]-amide] | 25.1 |

Same assay, conditions: Homo sapiens, fold change above DMSO treated cells, 5 μM compound, 16 h

| SMILES | fold induction at 5 µM |
| --- | --- |
| Cn1c(Nc2nc3ccc(OC(F)(F)F)cc3s2)nc2cc(C(=O)NCC(=O)N3CCCC(CO)C3)ccc21 (centres unmarked) [Example 440, 1-Methyl-2-(6-trifluoromethoxy-benzothiazol-2-ylamino)-1H-benzoimidazole-5-carboxylic acid [2-(3-hydroxymethyl-piperidin-1-yl)-2-oxo-ethyl]-amide] | 28.2 |
| Cn1c(Nc2nc3ccc(OC(F)(F)F)cc3s2)nc2cc(C(=O)NCCCCCO)ccc21 [Example 226, 1-Methyl-2-(6-trifluoromethoxy-benzothiazol-2-ylamino)-1H-benzoimidazole-5-carboxylic acid (5-hydroxy-pentyl)-amide] | 23.3 |
| CCn1c(Nc2nc3ccc(OC(F)(F)F)cc3s2)nc2cc(C(=O)O)ccc21 [Example 154, 1-Ethyl-2-(6-trifluoromethoxy-benzothiazol-2-ylamino)-1H-benzoimidazole-5-carboxylic acid] | 27.1 |
| CN(C)C(=O)[C@@H]1CCCN1C(=O)CNC(=O)c1ccc2c(c1)nc(Nc1nc3ccc(Cl)cc3s1)n2C [Example 419, 2-(6-Chloro-benzothiazol-2-ylamino)-1-methyl-1H-benzoimidazole-5-carboxylic acid [2-((S)-2-dimethylcarbamoyl-pyrrolidin-1-yl)-2-oxo-ethyl]-amide] | 28 |
| CCN(CC)CCCCNC(=O)c1ccc2c(c1)nc(Nc1nc3ccc(OC(F)(F)F)cc3s1)n2C [Example 360, 1-Methyl-2-(6-trifluoromethoxy-benzothiazol-2-ylamino)-1H-benzoimidazole-5-carboxylic acid (4-diethylamino-butyl)-amide] | 34.3 |
| CN(C)[C@@H]1CCN(C(=O)CNC(=O)c2ccc3c(c2)nc(Nc2nc4ccc(OC(F)(F)F)cc4s2)n3C)C1 [Example 415, 1-Methyl-2-(6-trifluoromethoxy-benzothiazol-2-ylamino)-1H-benzoimidazole-5-carboxylic acid [2-((R)-3-dimethylamino-pyrrolidin-1-yl)-2-oxo-ethyl]-amide] | 74.8 |
| COC(=O)C(C)(C)NC(=O)c1ccc2c(c1)nc(Nc1nc3ccc(OC(F)(F)F)cc3s1)n2C [Example 145, 2-Methyl-2-{[1-methyl-2-(6-trifluoromethoxy-benzothiazol-2-ylamino)-1H-benzimidazole-5-carbonyl]-amino}-propionic acid methyl ester] | 7.1 |
| Cn1c(Nc2nc3ccc(Cl)cc3s2)nc2cc(C(=O)N[C@@H]3CCCNC3)ccc21 [Example 309, 2-(6-Chloro-benzothiazol-2-ylamino)-1-methyl-1H-benzoimidazole-5-carboxylic acid (R)-piperidin-3-ylamide hydrochloride] | 21.5 |
| Cn1c(Nc2nc3ccc(OC(F)(F)F)cc3s2)nc2cc(C(=O)NC3CCCN(C(=O)OC(C)(C)C)C3)ccc21 (centres unmarked) [Example 94, 3-{[1-Methyl-2-(6-trifluoromethoxy-benzothiazol-2-ylamino)-1H-benzoimidazole-5-carbonyl]-amino}-piperidine-1-carboxylic acid tert-butyl ester] | 1.2 |
| CNC(=O)c1ccc2c(c1)nc(Nc1nc3ccc(C)cc3s1)n2C [Example 128, 2-(6-Methyl-benzothiazol-2-ylamino)-1-methyl-1H-benzimidazole-5-carboxylic acid methylamide] | 32.7 |
| COCCn1c(Nc2nc3ccc(Cl)cc3s2)nc2cc(C(=O)NCC(=O)N3CC[C@@H](O)C3)ccc21 [Example 404, 2-(6-Chloro-benzothiazol-2-ylamino)-1-(2-methoxy-ethyl)-1H-benzoimidazole-5-carboxylic acid [2-((R)-3-hydroxy-pyrrolidin-1-yl)-2-oxo-ethyl]-amide] | 26.1 |
| Cn1c(Nc2nc3ccc(OC(F)(F)F)cc3s2)nc2cc(C(=O)NCCN3CCOCC3)ccc21 [Example 43, 1-Methyl-2-(6-trifluoromethoxy-benzothiazol-2-ylamino)-1H-benzoimidazole-5-carboxylic acid (2-morpholin-4-yl-ethyl)-amide] | 29.6 |
| Cn1c(Nc2nc3ccc(OC(F)(F)F)cc3s2)nc2cc(C(=O)NCC3CC3)ccc21 [Example 5, 1-Methyl-2-(6-trifluoromethoxy-benzothiazol-2-ylamino)-1H-benzoimidazole-5-carboxylic acid cyclopropylmethyl-amide] | 8.33 |
| CCN(CC)c1cc2c(cc1C(=O)NCC(=O)N(C)C)nc(Nc1nc3ccc(OC(F)(F)F)cc3s1)n2C [Example 361, 6-Diethylamino-1-methyl-2-(6-trifluoromethoxy-benzothiazol-2-ylamino)-1H-benzoimidazole-5-carboxylic acid dimethylcarbamoylmethyl-amide] | 28.8 |
| CCN(CC)C(=O)CNC(=O)c1ccc2c(c1)nc(Nc1nc3ccc(OC(F)(F)F)cc3s1)n2C [Example 140, 1-Methyl-2-(6-trifluoromethoxy-benzothiazol-2-ylamino)-1H-benzimidazole-5-carboxylic acid diethylcarbamoylmethyl-amide] | 19.3 |
| CN1CCC(NC(=O)c2ccc3c(c2)nc(Nc2nc4ccc(Cl)cc4s2)n3C)CC1 [Example 319, 2-(6-Chloro-benzothiazol-2-ylamino)-1-methyl-1H-benzoimidazole-5-carboxylic acid (1-methyl-piperidin-4-yl)-amide] | 23.9 |
| CN(C)S(=O)(=O)N1CCN(C(=O)CNC(=O)c2ccc3c(c2)nc(Nc2nc4ccc(Cl)cc4s2)n3C)CC1 [Example 430, 2-(6-Chloro-benzothiazol-2-ylamino)-1-methyl-1H-benzoimidazole-5-carboxylic acid [2-(4-dimethylsulfamoyl-piperazin-1-yl)-2-oxoethyl]-amide] | 22.7 |
| Cn1c(Nc2nc3ccc(C(F)(F)F)cc3s2)nc2cc(C(=O)NCCOCCF)ccc21 [Example 257, 1-Methyl-2-(6-trifluoromethyl-benzothiazol-2-ylamino)-1H-benzoimidazole-5-carboxylic acid [2-(2-fluoro-ethoxy)-ethyl]-amide] | 21.9 |
| Cn1c(Nc2nc3ccc(OC(F)(F)F)cc3s2)nc2cc(C(=O)NCC(=O)N3CCNCC3)ccc21 [Example 152, 1-Methyl-2-(6-trifluoromethoxy-benzothiazol-2-ylamino)-1H-benzimidazole-5-carboxylic acid (2-oxo-2-piperazin-1-yl-ethyl)-amide hydrochloride] | 15 |
